Test results as given in patent US6558900B2, “Regulation of apoptosis and in vitro model for studies thereof” (Emory University, priority 1996, dated 2003).

Assays:
CPP32 [1] = assay: Reconstitution of dATP-dependent CPP32 activation in HeLa S-100 immunodepleted of cytochrome c; assay type: biochemical, human
Procedure: Cytochrome c present in the HeLa cell S-100 was immunodepleted as described in the Example 10. In FIG. 7A, 10 μl aliquots of HeLa S-100 (50 μg) (lanes 1 and 2), or 10 μl aliquots of HeLa S-100 immunodepleted of cytochrome c (lanes 3 and 4), or 10 μl of HeLa S-100 immunodepleted of cytochrome c supplemented with 0.2 μg Apaf-2 purified through the Mono S column (H) (lanes 5 and 6), bovine heart cytochrome c (B) (lanes 7 and 8), or rat liver cytochrome c (R) (lanes 9 and 10), were incubated with aliquots of 3 μl in vitro translated, ^35S-labeled CPP32 in the absence (lanes 1, 3, 5, 7, 9) or presence (lanes 2, 4, 6, 8, 10) of 1 mM dATP at 30° C. for 1 hr in a final reaction volume of 20 μl of buffer A. Samples were subjected to SDS-PAGE and transferred to a nitrocellulose filter which were then exposed to film for 16 hr at room temperature. In FIG. 7B, HeLa S-100 (50 μg) immunodepleted of cytochrome c were reconstituted with the indicated amount of Apaf-2 (purified through Mono S column step) in a CPP32 cleavage reaction as described in FIG. 7A. The cleaved products (p20) were quantified in a Fuji-1000 phosphorimager machine and plotted in comparison with that generated by HeLa S-100. In FIG. 7C, aliquots of 50 μl of HeLa S-100 (250 μg) (lanes 1 and 2), or 50 μl of HeLa S-100 immunodepleted of cytochrome c (lanes 3 and 4), or 50 μl of HeLa S-100 immunodepleted of cytochrome c supplemented with 1 μg apaf-2 purified through the Mono S column (H) (lanes 5 and 6), bovine heart cytochrome c (B) (lanes 7 and 8), or rat liver cytochrome c (R) (lanes 9 and 10), were incubated with aliquots of 6 μl hamster liver nuclei in the absence (lanes 1, 3, 5, 7, 9) or presence (lanes 2, 4, 6, 8, 10) of 1 mM dATP at 37° C. for 2 hr in a final reaction volume of 60 μl. The DNA were isolated as described in the Examples, analyzed on 2% agarose gel electrophoresis, and the DNA was visualized by ethidium bromide staining. In FIG. 7D, DNA fragmentation assays were carried out as in FIG. 7C using HeLa S-100 immunodepleted of cytochrome c alone (a,b) or supplemented with Apaf-2 purified through Mono S column step (c,d) in the absence (a,c) or presence of 1 mM dATP (b,d). After 2 hr incubation at 37° C., an aliquot of each reaction (30 μl) was stained with 4′,6′-diamidino-2-phenylindole (DAPI), and observed under a fluorescence microscope with a UV-2A combination filter.
To rule out the possibility that the Apaf-2 activity is due to a minor contaminating protein that co-purified with cytochrome c, an immunodepletion experiment was carried out using a monoclonal antibody against rat cytochrome c. This monoclonal antibody cross-reacts with purified Apaf-2. As shown in FIGS. 7A-7D, HeLa cell S-100 depleted of cytochrome c using the monoclonal anti-cytochrome c antibody lost the dATP-dependent activation of CPP32 and the ability to induce DNA fragmentation in the added nuclei (FIGS. 7A and 7C, lanes 3 and 4). Adding back either the purified Apaf-2 from HeLa cells or the commercial cytochrome c from bovine heart or rat liver to the immunodepleted extracts restored the dATP-dependent activation of CPP32 and DNA fragmentation (FIGS. 7A and 7C, lanes 5-10). The reconstitution of cytochrome c dependent-activation of CPP32 was evident with the addition of 0.01 μg (33 nM) of purified cytochrome c to the cytochrome c-depleted extracts (FIG. 7B).
CPP32 was translated and purified as described above. Aliquot of 3 μl of the in vitro translated CPP32 was incubated with the indicated protein fraction, nucleotides, and 1 mM additional MgCl2 at 30° C. for 1 hour in a final volume of 20 μl of buffer A. At the end of the incubation, 7 μl of 4×SDS sample buffer was added to each reaction. After boiling for 3 min, each sample was subjected to a 15% SDS-polyacrylamide gel electrophoresis (SDS-PAGE). The gel was transferred to a nitrocellulose filter which was subsequently exposed to a Kodak X-OMAT AR X-ray film (Eastman Kodak, Rochester, N.Y.) for 16 hr at room temperature. […]

CPP32 [2] = assay: dATP and cytochrome c-dependent activation of CPP32 in S-100 from human monoblastic U937 cells; assay type: biochemical
Procedure: (§1) FIG. 8 illustrates dATP and cytochrome c-dependent activation of CPP32 in S-100 cytosol preparations (immunodepleted of cytochrome c) from human embryonic kidney 293 cells and human monoblastic U937 cells. CPP32 activation reactions were carried out as described in FIG. 7 except 25 μg of S-100 was used in each reaction. 1 mM of dATP was present in lanes 2, 4, 6, 8, 10, and 12. Lanes 1 and 2, S-100 fraction from 293 cells; Lanes 3-4, S-100 fraction from 293 cells immunodepleted of cytochrome c; lanes 5 and 6, S-100 fraction from 293 cells immunodepleted of cytochrome c supplemented with 0.2 μg of Apaf-2 purified through the Mono S column step; Lanes 7 and 8, S-100 fraction from U937 cells; […], S-100 fraction from U937 cells immunodepleted of cytochrome c; lanes 11,12, S-100 fraction from U937 cells immunodepleted of cytochrome c supplemented with 0.2 μg of Apaf-2 purified through Mono S column step.
(§2) To investigate whether the dATP and cytochrome c-dependent activation of CPP32 is a general phenomenon, cytosols were prepared from human embryonic kidney 293 cells and human monoblastic leukemia U937 cells.
(§3) 293 cells were set up at 5×10^5 cells per 100 mm dish in medium A [Dulbecco's modified Eagle's medium (DMEM) supplemented with 10% (v/v) heat-inactivated fetal calf serum, 100 U/ml penicillin and 100 μg/ml streptomycin sulfate]. […]

CPP32 [3] = assay: dATP and cytochrome c-dependent activation of CPP32 in S-100 from human embryonic kidney 293 cells; assay type: biochemical
Procedure: as §1, §2, §3

[4] = added to cytochrome c-depleted extracts

| Molecule | restoration of dATP-dependent activation of CPP32 (CPP32 [1]; 0.2 μg added to immunodepleted HeLa S-100, 1 mM dATP) | amount at which reconstitution of CPP32 activation was evident (CPP32 [1]; [4]) [µg] | concentration at which reconstitution of CPP32 activation was evident (CPP32 [1]; [4]) [nM] | recovered control activity (p20 cleaved product vs HeLa S-100) (CPP32 [1]; addition of 0.3 μg) | restoration of CPP32 activating activity (CPP32 [2]; U937 cell S-100 immunodepleted of cytochrome c, 0.2 μg, 1 mM dATP) | restoration of CPP32 activating activity (CPP32 [3]; 293 cell S-100 immunodepleted of cytochrome c, 0.2 μg, 1 mM dATP) | dATP-dependent CPP32 activating activity of S-100 (CPP32 [2]; U937 cell S-100, 1 mM dATP) | dATP-dependent CPP32 activating activity of S-100 (CPP32 [3]; 293 cell S-100, 1 mM dATP) |
| --- | --- | --- | --- | --- | --- | --- | --- | --- |
| Apaf-2: 15 kDa factor bound to phosphocellulose column, purified from HeLa S-100, identified as human cytochrome c | restored | 0.01 | 33 | more than 100% | restored the activity | restored the activity |  |  |
| Nc1ncnc2c1ncn2[C@H]1C[C@H](O)[C@@H](COP(=O)(O)OP(=O)(O)OP(=O)(O)O)O1 [dATP, deoxyadenosine-5-triphosphate] |  |  |  |  |  |  | contained a dATP-dependent CPP32 activating activity | contained a dATP-dependent CPP32 activating activity |
